Test results: DBAASP
In brackets after ≈: the same amount, converted by molar mass. Several values for one entry are separate records, joined by “and”; a condition that tells them apart may be missing. Identical values can stand only once.

What was measured:
Assay in all cases: ≥ marks a high value that may be exact or a test limit, other limits are often not marked, values filed in µg/mL are converted to µM
Escherichia coli = tested on: Escherichia coli
Staphylococcus aureus = tested on: Staphylococcus aureus
[1] = tested on: Bifidobacterium longum subsp. infantis
[2] = tested on: Staphylococcus aureus ATCC 2592
[3] = tested on: Rhodococcus rhodochrous X15
[4] = tested on: Bacillus licheniformis X39
[5] = tested on: Staphylococcus carnosus KHS
Listeria innocua = tested on: Listeria innocua
Streptococcus uberis = tested on: Streptococcus uberis
Bacillus cereus = tested on: Bacillus cereus
Leuconostoc lactis = tested on: Leuconostoc lactis
Micrococcus luteus = tested on: Micrococcus luteus
[6] = tested on: Staphylococcus epidermidis
Pasteurella multocida = tested on: Pasteurella multocida
[7] = tested on: Acinetobacter baumannii ATCC 19606
[8] = tested on: Staphylococcus aureus ATCC 29213
[9] = tested on: Pseudomonas aeruginosa ATCC 27853
[10] = tested on: Pseudomonas aeruginosa 50
[11] = tested on: Klebsiella pneumoniae ATCC 700603
Escherichia coli 780 = tested on: Escherichia coli 780
[12] = tested on: Acinetobacter baumannii 97830
[13] = tested on: Staphylococcus aureus 113
[14] = tested on: Pseudomonas aeruginosa 73
[15] = tested on: Pseudomonas aeruginosa ATCC 9027
Escherichia coli 804 = tested on: Escherichia coli 804
[16] = tested on: Staphylococcus epidermidis ATCC 12228
[17] = tested on: Bacillus subtilis ATCC 23857
[18] = tested on: Acinetobacter baumannii 9931
Staphylococcus aureus 75 = tested on: Staphylococcus aureus 75
[19] = tested on: Staphylococcus aureus ΔmprFpRBsyn
[20] = tested on: Escherichia coli ATCC 25922
[21] = tested on: Pseudomonas aeruginosa CUN 4158-02
[22] = tested on: Brucella abortus 9.49 (per-)
[23] = tested on: Bordetella bronchiseptica CUN 11844-99
[24] = tested on: Staphylococcus aureus ΔmprF
[25] = tested on: Staphylococcus aureus ATCC 43300
Yersinia pestis KIM pYV = tested on: Yersinia pestis KIM pYV
[26] = tested on: Trichophyton mentagrophytes TIMM 1189
[27] = tested on: Candida albicans TIMM 0144
[28] = tested on: Staphylococcus aureus JCM 2151
[29] = tested on: Enterobacter cloacae ATCC 23355
Candida albicans = tested on: Candida albicans
[30] = tested on: Bacillus subtilis CCT 2471
[31] = tested on: Klebsiella pneumoniae ATCC 13883
[32] = tested on: Staphylococcus saprophyticus
[33] = tested on: Escherichia coli CCT 1371
[34] = tested on: Staphylococcus aureus ATCC 6535
Fusarium graminearum = tested on: Fusarium graminearum
[35] = tested on: Yersinia enterocolitica ATCC 23715

SMILES: NCCCC[C@H](NC(=O)CNC(=O)[C@H](Cc1ccccc1)NC(=O)[C@H](CCCCN)NC(=O)[C@@H](N)CCC(=O)O)C(=O)N[C@@H](CC(=O)O)C(=O)N[C@@H](CCCCN)C(=O)N[C@@H](CO)C(=O)N1CCC[C@H]1C(=O)N[C@@H](CCCCN)C(=O)N[C@@H](Cc1ccccc1)C(=O)N[C@@H](CCC(N)=O)C(=O)O [EKFGKDKSPKFQ]
- MIC (Escherichia coli): 2090 µM (≈ 3000 µg/mL)
- MIC (Staphylococcus aureus): 2090 µM (≈ 3000 µg/mL)
- MIC [1]: ≥ 2090 µM

SMILES: CC[C@H](C)[C@H](NC(=O)[C@H](CC(C)C)NC(=O)CNC(=O)[C@H](C)NC(=O)[C@H](CC(C)C)NC(=O)[C@@H](N)Cc1ccccc1)C(=O)NCC(=O)NCC(=O)N[C@@H](CC(C)C)C(=O)N[C@@H](C)C(=O)N[C@@H](CCCCN)C(=O)N[C@@H](CCSC)C(=O)N[C@@H](CC(C)C)C(N)=O [FLAGLIGGLAKML]
- MIC [2]: 9.5 µM (≈ 12.4 µg/mL)
- MIC [3]: 4.8 µM (≈ 6.25 µg/mL)
- MIC [4]: 19 µM (≈ 24.8 µg/mL)
- MIC [5]: 9.5 µM (≈ 12.4 µg/mL)

SMILES: CC[C@H](C)[C@H](NC(=O)[C@H](CO)NC(=O)CNC(=O)[C@@H](NC(=O)[C@H](CC(C)C)NC(=O)CN)[C@@H](C)CC)C(=O)NCC(=O)N[C@@H](CCCCN)C(=O)N[C@@H](C)C(=O)N[C@@H](CC(C)C)C(=O)NCC(=O)NCC(=O)N[C@@H](CC(C)C)C(=O)N[C@@H](CC(C)C)C(=O)N[C@H](C(=O)N[C@@H](CC(=O)O)C(=O)N[C@H](C(=O)N[C@@H](CC(C)C)C(=O)N[C@@H](CCCCN)C(=O)N1CCC[C@H]1C(=O)N[C@@H](CCCCN)C(=O)N[C@@H](CC(C)C)C(=O)O)C(C)C)C(C)C [GLIGSIGKALGGLLVDVLKPKL]
- MIC (Listeria innocua): ≥ 46.3 µM
- MIC (Streptococcus uberis): ≥ 46.3 µM
- MIC (Bacillus cereus): ≥ 46.3 µM
- MIC (Escherichia coli): > 46.3 µM
- MIC (Leuconostoc lactis): 23.1 µM (≈ 50 µg/mL)
- MIC (Staphylococcus aureus): > 46.3 µM
- MIC (Micrococcus luteus): ≥ 46.3 µM
- MIC [6]: ≥ 46.3 µM
- MIC (Pasteurella multocida): ≥ 46.3 µM

SMILES: NCC(=O)N[C@@H](Cc1c[nH]c2ccccc12)C(=O)N[C@@H](CCCN=C(N)N)C(=O)N[C@@H](Cc1c[nH]c2ccccc12)C(=O)N[C@@H](Cc1c[nH]c2ccccc12)C(=O)N[C@@H](Cc1c[nH]c2ccccc12)C(=O)N[C@@H](CCCN=C(N)N)C(=O)N[C@@H](Cc1c[nH]c2ccccc12)C(=O)NCC(N)=O [GWRWWWRWG]
- MIC [7]: 32 µM (≈ 44 µg/mL)
- MIC [8]: 8 µM (≈ 11 µg/mL)
- MIC [9]: 64 µM (≈ 88 µg/mL)
- MIC [10]: ≥ 32 µM
- MIC [11]: 32 µM (≈ 44 µg/mL)
- MIC (Escherichia coli 780): 8 µM (≈ 11 µg/mL)
- MIC [12]: 16 µM (≈ 22 µg/mL)
- MIC [13]: 8 µM (≈ 11 µg/mL)
- MIC [14]: ≥ 32 µM
- MIC [15]: 64 µM (≈ 88 µg/mL)
- MIC (Escherichia coli 804): 16 µM (≈ 22 µg/mL)
- MIC [16]: 8 µM (≈ 11 µg/mL)
- MIC [17]: 4 µM (≈ 5.5 µg/mL)
- MIC [18]: 8 µM (≈ 11 µg/mL)
- MIC (Staphylococcus aureus 75): 8 µM (≈ 11 µg/mL)

SMILES: CC[C@H](C)[C@H](NC(=O)[C@H](CCCN=C(N)N)NC(=O)[C@H](CCCN=C(N)N)NC(=O)[C@H](CC(C)C)NC(=O)[C@H](Cc1ccccc1)NC(=O)[C@@H](NC(=O)[C@H](CCCN=C(N)N)NC(=O)[C@H](CCSC)NC(=O)[C@@H](NC(=O)[C@H](CCCCN)NC(=O)[C@H](CCCCN)NC(=O)[C@H](CO)NC(=O)[C@@H](NC(=O)[C@@H](N)CCCCN)[C@@H](C)CC)[C@@H](C)CC)[C@@H](C)O)C(=O)N[C@@H](CO)C(=O)N[C@@H](CCCCN)C(=O)N[C@@H](CC(=O)O)C(=O)N[C@H](C(=O)N[C@@H](CC(C)C)C(=O)N[C@H](C(=O)NCC(=O)N[C@@H](CCCCN)C(=O)N[C@@H](CCCCN)C(N)=O)[C@@H](C)O)[C@@H](C)CC [KISKKIMRTFLRRISKDILTGKK]
- MIC [7]: 1.45 µM (≈ 4 µg/mL)
- MIC [19]: 1.45 µM (≈ 4 µg/mL)
- MIC [20]: 1.45 µM (≈ 4 µg/mL)
- MIC [21]: 1.45 µM (≈ 4 µg/mL)
- MIC [22]: 0.724 µM (≈ 2 µg/mL)
- MIC (Staphylococcus aureus): 11.6 µM (≈ 32 µg/mL)
- MIC [23]: 0.362 µM (≈ 1 µg/mL)
- MIC [24]: 1.45 µM (≈ 4 µg/mL)
- MIC [25]: > 92.7 µM
- MIC (Yersinia pestis KIM pYV): ≥ 46.4 µM

SMILES: CC(=O)N[C@@H](CCCN=C(N)N)C(=O)N[C@@H](CCCN=C(N)N)C(=O)N[C@@H](Cc1c[nH]c2ccccc12)C(=O)N[C@@H](Cc1c[nH]c2ccccc12)C(=O)N[C@@H](CS)C(=O)N[C@@H](CCCN=C(N)N)C(N)=O [RRWWCR]
- MIC [26]: 6.24 µM (≈ 6.26 µg/mL)
- MIC [27]: ≥ 52 µM
- MIC [28]: 26 µM and 12.5 µM

SMILES: CC[C@H](C)[C@H](NC(=O)[C@H](CO)NC(=O)[C@@H](NC(=O)[C@H](CCCCN)NC(=O)[C@H](Cc1ccccc1)NC(=O)[C@@H]1CCCN1C(=O)[C@@H](N)[C@@H](C)O)[C@@H](C)CC)C(=O)N[C@@H](Cc1cnc[nH]1)C(=O)N[C@@H](CC(C)C)C(N)=O [TPFKISIHL]
- MIC [9]: 14.2 µM (≈ 15 µg/mL)
- MIC [29]: 14.2 µM (≈ 15 µg/mL)
- MIC (Candida albicans): 2.37 µM (≈ 2.5 µg/mL)
- MIC [30]: 28.4 µM (≈ 30 µg/mL)
- MIC [31]: 14.2 µM (≈ 15 µg/mL)
- MIC [32]: 9.48 µM (≈ 9.99 µg/mL)
- MIC [33]: 14.2 µM (≈ 15 µg/mL)
- MIC [34]: 14.2 µM (≈ 15 µg/mL)

SMILES: NC(=O)C[C@H](NC(=O)CNC(=O)[C@H](Cc1ccccc1)NC(=O)[C@@H](N)Cc1c[nH]c2ccccc12)C(=O)N[C@@H](CS)C(=O)NCC(=O)N[C@@H](CC(N)=O)C(=O)N1CCC[C@H]1C(=O)N[C@@H](CCCN=C(N)N)C(=O)N[C@@H](Cc1cnc[nH]1)C(=O)N[C@@H](CS)C(=O)NCC(=O)O [WFGNCGNPRHCG]
- MIC (Fusarium graminearum): ≥ 70 µM

SMILES: CC[C@H](C)[C@H](NC(=O)[C@@H]1CCCN1C(=O)[C@H](CC(N)=O)NC(=O)[C@H](Cc1cnc[nH]1)NC(=O)[C@@H](NC(=O)[C@@H]1CCCN1C(=O)[C@H](C)NC(=O)[C@H](CC(C)C)NC(=O)[C@@H]1CCCN1C(=O)[C@H](CCC(N)=O)NC(=O)[C@@H](NC(=O)[C@@H](NC(=O)[C@@H]1CCCN1C(=O)[C@@H](N)Cc1ccc(O)cc1)C(C)C)[C@@H](C)O)C(C)C)C(=O)N[C@@H](CO)C(=O)O [YPVTQPLAPVHNPIS]
- MIC [20]: 1.91 µM (≈ 3.13 µg/mL)
- MIC [35]: 3.83 µM (≈ 6.25 µg/mL)
